In ChEMBL document CHEMBL1150483, “4-oxygenated retinoids: unexpected chemopreventive potential for analogues originally synthesized as affinity labels” (1992):

Legend:
Mus musculus [1] = species on record: Mus musculus; assay: Ability to inhibit tumor promoter-induced ornithine decarboxylase activity in mouse skin using 17 nM of protein; format: functional
Mus musculus [2] = species on record: Mus musculus; assay: Ability to inhibit tumor promoter-induced ornithine decarboxylase activity in mouse skin using 1.7 nM of protein; format: functional

## CC1=C(/C=C/C(C)=C/C=C/C(C)=C/C(=O)O)C(C)(C)CCC1 [TRETINOIN]
Mus musculus [1]
  ODC Activity: 1.9 (nM of CO2) 30min-1 (mg of protein)-1
Mus musculus [2]
  ODC Activity: 2 (nM of CO2) 30min-1 (mg of protein)-1

## CC1=C(/C=C/C(C)=C/C=C/C(C)=C/C(=O)O)C(C)(C)CCC1OC(=O)CBr (stereo unspecified)
Mus musculus [1]
  ODC Activity: 2.5 (nM of CO2) 30min-1 (mg of protein)-1
Mus musculus [2]
  ODC Activity: 2.3 (nM of CO2) 30min-1 (mg of protein)-1

## C=CC(=O)OC1CCC(C)(C)C(/C=C/C(C)=C/C=C/C(C)=C/C(=O)O)=C1C (stereo unspecified)
Mus musculus [1]
  ODC Activity: 2.4 (nM of CO2) 30min-1 (mg of protein)-1
Mus musculus [2]
  ODC Activity: 3.5 (nM of CO2) 30min-1 (mg of protein)-1
